MIC data for 3 compounds are collected here from DBAASP.

The structures appear in SMILES notation. Converted amounts (≈) assume the structure as drawn. “And” between values parts separate entries of the source, which are not always exact repeats. Equal entries are not always repeated.

As a reminder, the MIC is the lowest concentration found to suppress growth.

Some test systems named below: Escherichia coli E423-17; Escherichia coli K-12; Proteus mirabilis; Staphylococcus sciuri; Microsporum canis; Staphylococcus simulans; Escherichia coli; Pseudomonas aeruginosa.
Holding throughout (assay): ≥ marks a high value that may be exact or a test limit, other limits are often not marked, values filed in µg/mL are converted to µM
In test [1] the test system is Staphylococcus epidermidis CGMCC 1.4260.
For test [2], the system named is Pseudomonas aeruginosa E411-17.
In test [3] the test system is Pseudomonas aeruginosa PAO1.
Test [4] has as its system Enterococcus faecium V284-17.
Test [5] relates to Pseudomonas aeruginosa CGMCC 1.2421.
The subject of test [6] is Acinetobacter baumannii B28-16.
The test system of test [7] is Klebsiella pneumoniae ATCC 13883.
For test [8], the system named is Escherichia coli ATCC 25922.
Test [9] relates to Enterococcus faecium ATCC 51559.
Test [10] has as its system Staphylococcus epidermidis 1457.
The subject of test [11] is Staphylococcus aureus CGMCC 1.8721.
Test [12] relates to Klebsiella pneumoniae E406-17.
For test [13], the system named is Staphylococcus aureus USA 300.
In test [14] the test system is Escherichia coli CGMCC 1.8732.
Test [15] relates to Staphylococcus aureus UAMS-1.
The subject of test [16] is Klebsiella pneumoniae CGMCC 1.1736.
Test [17] concerns Trichophyton mentagrophytes.
For test [18], the system named is Serratia marcescens ATCC 4112.
Test [19] relates to Saccharomyces cerevisiae CICC 1002.
Test [20] has as its system Bacillus subtilis CICC 10034.
In test [21] the test system is Microsporum canis MW768151.
Test [22] has as its system Listeria innocua CICC 10417.
Test [23] concerns Staphylococcus pseudintermedius.
Test [24] deals with Staphylococcus aureus CICC 10306.
For test [25], the system named is Escherichia coli CICC 10293.
Test [26] relates to Salmonella enterica subsp. enterica serovar Paratyphi B CICC 10437.
Test [27] relates to Staphylococcus cohnii MW767053.
Test [28] deals with Staphylococcus haemolyticus.
In test [29] the test system is Pseudomonas aeruginosa CICC 21636.
The test system of test [30] is Staphylococcus aureus CICC 10384.
The test system of test [31] is Staphylococcus pseudintermedius MW767056.
Test [32] deals with Candida albicans CICC 1965.
Test [33] has as its system Aspergillus niger CICC 2124.
Test [34] concerns Enterobacter cloacae CICC 21539.
The subject of test [35] is Klebsiella pneumoniae Q14-0095.
The subject of test [36] is Acinetobacter baumannii Q13-0717.
The subject of test [37] is Staphylococcus aureus NCTC 12493.
Test [38] concerns Pseudomonas aeruginosa Q14-0208.
The test system of test [39] is Staphylococcus aureus Q14-0320.
Test [40] concerns Campylobacter jejuni NCTC 11351.
The subject of test [41] is Acinetobacter baumannii Q12-0809.
In test [42] the test system is Staphylococcus aureus ATCC 29213.
In test [43] the test system is Klebsiella pneumoniae NCTC 13442.
Test [44] has as its system Pseudomonas aeruginosa ATCC 27853.
The subject of test [45] is Klebsiella pneumoniae ATCC 700603.

`CC[C@H](C)[C@H](NC(=O)[C@H](CCCNC(=N)N)NC(=O)[C@H](CCC(N)=O)NC(=O)[C@@H](NC(=O)[C@@H](NC(=O)[C@H](CCCNC(=N)N)NC(=O)[C@H](CCCCN)NC(=O)[C@H](Cc1ccccc1)NC(=O)CN)[C@@H](C)CC)C(C)C)C(=O)N[C@@H](CCCCN)C(=O)N[C@@H](CC(=O)O)C(=O)N[C@@H](Cc1ccccc1)C(=O)N[C@@H](CC(C)C)C(=O)N[C@@H](CCCNC(=N)N)C(=O)N[C@@H](CC(N)=O)C(=O)N[C@@H](CC(C)C)C(=O)N[C@H](C(N)=O)C(C)C` [GFKRIVQRIKDFLRNLV]: the minimal inhibitory concentration (MIC) is 3.12 µM (≈ 6.57 µg/mL) in [1]; 16 µM (≈ 33.6 µg/mL) against Escherichia coli E423-17; 16 µM (≈ 33.6 µg/mL) in [2]; 25 µM (≈ 52.5 µg/mL) in test [3]; 2 µM (≈ 4.2 µg/mL) in test [4]; 6.25 µM (≈ 13.1 µg/mL) in [5]. Also, the MIC in [6] was 1.6 µM and 4 µM; in [7], 3.1 µM (≈ 6.51 µg/mL); in test [8] it was 4.4 µM (≈ 9.25 µg/mL); in [9], 6.25 µM (≈ 13.1 µg/mL); in test [10], 1.6 µM (≈ 3.36 µg/mL); in [11], 6.25 µM (≈ 13.1 µg/mL). In addition, the MIC in test [12] was at least 32 µM; in test [13] it was 7.5 µM and 3.1 µM and 7 µM; in [14] it was 6.25 µM (≈ 13.1 µg/mL); in [15] it was 7 µM and 3.1 µM; in the test with Escherichia coli K-12 it was 7.5 µM and 14 µM; in [16], 6.25 µM (≈ 13.1 µg/mL).
Consider `CC[C@H](C)[C@H](NC(=O)[C@@H](NC(=O)[C@H](CO)NC(=O)[C@H](Cc1ccccc1)NC(=O)[C@H](CC(C)C)NC(=O)[C@H](CCCN=C(N)N)NC(=O)[C@@H](NC(=O)[C@H](CC(C)C)NC(=O)CN)[C@@H](C)O)C(C)C)C(=O)N[C@@H](CCCCN)C(=O)O` [GLTRLFSVIK], for which the MIC in the test with Proteus mirabilis was at least 226 µM; in test [17] it was 0.882 µM (≈ 1 µg/mL); in test [18], 7.06 µM (≈ 8 µg/mL); in test [19], at least 56.5 µM; in [20], 28.2 µM (≈ 32 µg/mL); in the test on Staphylococcus sciuri, at least 226 µM. The MIC in test [21] was 0.882 µM (≈ 1 µg/mL); in test [22], 28.2 µM (≈ 32 µg/mL); in test [23], at least 56.5 µM; in [24], 14.1 µM (≈ 16 µg/mL); against Microsporum canis, 0.624 µM (≈ 0.707 µg/mL); in test [25], 14.1 µM (≈ 16 µg/mL). Moreover, the minimal inhibitory concentration (MIC) is at least 226 µM against Staphylococcus simulans; 28.2 µM (≈ 32 µg/mL) in test [26]; at least 56.5 µM in test [27]; at least 226 µM in test [28]; 7.06 µM (≈ 8 µg/mL) in [29]; 14.1 µM (≈ 16 µg/mL) in test [30]. Moreover, the MIC in [31] is 28.2 µM (≈ 32 µg/mL); in test [32], 28.2 µM (≈ 32 µg/mL); in [33], at least 56.5 µM; in test [34], 14.1 µM (≈ 16 µg/mL).
In the case of `C[C@H](NC(=O)[C@H](CCCN=C(N)N)NC(=O)[C@H](Cc1ccc(O)cc1)NC(=O)[C@H](Cc1cnc[nH]1)NC(=O)[C@H](Cc1c[nH]c2ccccc12)NC(=O)[C@H](CCCN=C(N)N)NC(=O)[C@H](Cc1c[nH]c2ccccc12)NC(=O)[C@H](C)NC(=O)[C@@H](NC(=O)CN)[C@@H](C)O)C(=O)N[C@@H](CCCN=C(N)N)C(=O)N[C@@H](CO)C(=O)O` [GTAWRWHYRARS], the MIC in test [35] was at least 82.8 µM; in the test on Escherichia coli it was 82.8 µM (≈ 128 µg/mL); in test [36], at least 82.8 µM; in test [37], at least 82.8 µM; in test [38], at least 82.8 µM; in [39], at least 82.8 µM. For the same compound, the minimum inhibitory concentration (MIC) is at least 82.8 µM in test [40]; at least 82.8 µM in test [41]; above 82.8 µM in test [42]; at least 82.8 µM in test [43]; above 331 µM with Pseudomonas aeruginosa; 82.8 µM (≈ 128 µg/mL) in test [44]. Moreover, the minimum inhibitory concentration (MIC) in [45] is above 82.8 µM.
